Laboratory results reported in patent publication US20130225539A1, “METHOD FOR PRODUCING CRYSTALLINE 5-AMINOSALICYLIC ACID” (Pharmazell GMBH, priority 2010, published 2013).
Like-named read-outs stand apart in the source and are kept apart here.

Columns and labels:
Format in all cases: physicochemical
[1] = Tapped density (USP 616, Method 2); settings: crystalline powder
Experimental: (§1) The bulk density and tapped density are measured by methods known to the skilled person, such as those described in the USP (“United States Pharmacopeia”) monograph, e.g., USP 27, Vol. 1, pp. 226 to 227, May 1, 2009-Apr. 30, 2010, Bulk Density 616, Method 1, Tapped Density 616, Method 2. The measurement of the grain size distribution is effected according to the protocols of European Pharmacopeia, Supplement 6.6, Chapter 2.9.31 “Particle Size Analysis by Laser Light Diffraction” pp. 5103-5107.

[2] = Grain size distribution by laser light diffraction (Ph. Eur. 2.9.31)
Experimental: as §1
(§2) The crystals are described by their particle size distribution as observed by laser diffraction, their optical micrograph image and their aspect ratio which can be determined, for example, by means of image analysis using the Malvern Symex FPIA 3000.

[3] = Crystal shape by image analysis (Malvern Sysmex FPIA 3000): aspect ratio, circularity; settings: for Aspect ratio (width/length; w/l): main fraction of the crystals
Excerpt: as §2
The aspect ratio (width/length; w/l) is expressed by a proportion. In the case of the 5-ASA according to the invention having a particularly high bulk density, the main fraction of the crystals has an aspect ratio around 0.5. From this, a width to length ratio of w/l of 1:2 can be calculated. In the 5-ASA having a high bulk density according to the invention, the aspect ratio is around 0.36, thus corresponding to a width to length ratio of 1:3. The different aspect ratios of the 5-ASA crystal fractions according to the invention having high and particularly high bulk densities bring about the different bulk and tapped densities and the differently broad grain size distributions seen in the laser diffractograms according to FIG. 10 and FIG. 11.
The measured value of circularity describes the deviation of the crystal shape from ideal spherical shape. A value of 1 corresponds to an ideal sphere.

[4] = Bulk density (USP 616, Method 1); settings: crystalline powder
Experimental: as §1

[5] = listed as 5-ASA coarse crystals

Row | Tapped density [1] | Grain size distribution X(10) [2] | Grain size distribution X(50) [2] | Grain size distribution X(90) [2] | Aspect ratio (width/length; w/l) ([3]; listed as 5-ASA having a high bulk density according to the invention) | Bulk density [4] | Tapped density [1, 5] | Grain size distribution X(10) [2, 5] | Grain size distribution X(50) [2, 5] | Grain size distribution X(90) [2, 5] | Bulk density [4, 5] | Circularity ([3]; 1 = ideal sphere) | Aspect ratio (width/length; w/l) ([3]; listed as 5-ASA according to the invention having a particularly high bulk density) | Tapped density ([1]; listed as 5-ASA fine crystals) | Grain size distribution X(10) ([2]; listed as 5-ASA fine crystals) | Grain size distribution X(50) ([2]; listed as 5-ASA fine crystals) | Grain size distribution X(90) ([2]; listed as 5-ASA fine crystals) | Bulk density ([4]; listed as 5-ASA fine crystals) | Compound
1 | 510 to 700 g/L | X(10) = 3-5 μm | 15-45 μm | 90-100 μm | around 0.36 | 300 to 400 g/L |  |  |  |  |  |  |  |  |  |  |  |  | Nc1ccc(O)c(C(=O)O)c1 [Example 2, 5-aminosalicylic acid]
2 | 450 to 480 g/L | X (10) = 10-15 μm | X (50) = 50-60 μm | X (90) = 200-220 μm |  | 250 to 270 g/L | 450 to 480 g/L | X(10) = 10-15 μm | 50-60 μm | 200-220 μm | 250 to 270 g/L |  |  |  |  |  |  |  | Nc1ccc(O)c(C(=O)O)c1 [5-ASA coarse acicular crystals, 5-aminosalicylic acid]
3 | 600 to 800 g/L | X(10) = 7-10 μm | 25-35 μm | 80-90 μm |  | 400 to 500 g/L |  |  |  |  |  | ~0.8 | around 0.5 |  |  |  |  |  | Nc1ccc(O)c(C(=O)O)c1 [Example 1, 5-aminosalicylic acid]
4 | 300 to 390 g/L | X (10) = 2-6 μm | X (50) = 8-20 μm | X (90) = 25-50 μm |  | 150 to 190 g/L |  |  |  |  |  |  |  | 300 to 390 g/L | X(10) = 2-6 μm | 8-20 μm | 25-50 μm | 150 to 190 g/L | Nc1ccc(O)c(C(=O)O)c1 [5-ASA fine acicular crystals, 5-aminosalicylic acid]
